From patent US20250042884A1, “3-ARYLOXYL-3-FIVE-MEMBERED HETEROARYL PROPYLAMINE COMPOUND AND USE THEREOF” (Shanghai Leado Pharmatech Co. Ltd., priority 2018, published 2025) come the findings set out here.

Read-outs that look alike come from different tables or passages of the source.

One assay has as its target TRPA1 (Mus musculus (Mouse), UniProt Q8BLA8). The assay is described as follows: IonWorks Barracuda (IWB) automated patch clamp detection of TRPA1 inhibitory activity. The assay is classed as cell-based. Particulars: for IC50: HEK293 cells stably expressing TRPA1. As for the experimental part:
The inhibitory activity of some compounds in the examples of the present invention (as shown in Table 1) on transient receptor potential channel protein TRPA1 was tested in this example. The compound of formula A (WO2010075353) was used as a positive control compound: […]
Ion Works Barracuda (IWB) automated patch clamp detection was used as test method: HEK293 cells stably expressing TRPA1 were placed in DMEM medium containing 15 μg/mL Blasticidin S HCl, 200 μg/mL Hygromycin B and 10% FBS in the T175 culture flask, and cultured in 37° C., 5% CO2 incubator. When the cell density reached about 80%, the culture medium was removed, rinsed with phosphate buffered saline (PBS) without calcium and magnesium. 3 mL of Trypsin was added to digest for 2 min, 7 mL of culture medium was added to terminate the digestion. The cells were collected to 15 mL centrifuge tube and centrifuged at 800 rpm for 3 min. After the supernatant was removed, the cells were added to appropriate volume of extracellular fluid for re-suspending, and the cell density was controlled at 2-3×10^6/mL for IWB experiment. Extracellular fluid formulation (in mM): 140 NaCl, 5 KCl, 1 MgCl2, 10 HEPES, 0.5 EGTA, 10 Glucose (pH 7.4); intracellular fluid formulation (in mM): 140 CsCl, 10 HEPES, 5 EGTA, 0.1 CaCl2, 1 MgCl2 (pH 7.2). 28 mg/mL of amphotericin B was freshly prepared with DMSO on the day of experiment, and then final concentration of 0.1 mg/mL was prepared with intracellular fluid.
Population patch clamp (PPC) plate was used in IWB experiment. The entire detection process was automatically carried out by the instrument. Extracellular fluid was added into 384 wells of PPC plate, and 6 µL of the intracellular fluid was added into plenum (under the PPC plate), 6 µL of cell fluid was added for sealing test, and finally the intracellular fluid in plenum was replaced with amphotericin B-containing intracellular fluid to establish a whole-cell recording mode after perforating sealed cells. The sampling frequency for recording TPRA1 current was 10 kHz, the cells were clamped at 0 mV, the voltage stimulation command (channel protocol) was a ramp voltage from −100 mV to +100 mV for 300 ms. This voltage stimulation was applied every 10 s, mTRPA1current was induced by 300 µM AITC.
Data recording and current amplitude measurement export were carried out by IWB software (version 2.5.3, Molecular Devices Corporation, Union City, CA). No statistics was recorded for holes with sealing impedance lower than 20 MQΩ. The original current data was corrected by software for leakage reduction. TRPA1 current amplitude was measured at +100 mV. […] If IC50 value of HC030031 exceeded 3 times the average IC50 value previously obtained on each plate, it would be re-tested. The dose-effect curve of compounds and IC50 were fitted and calculated by GraphPad Prism 5.02 (GraphPad Software, San Diego, CA).
Some compounds in the examples of the present invention were detected by lonWorks Barracuda (IWB) automated patch clamp detection method for IC50 inhibitory activity.
In general terms: In patch-clamp work, channel activity is measured electrically.

In another assay the test system is SH-SY5Y cells. The assay is described as follows: Cytotoxicity test (CCK-8), neurotoxicity. The assay is classed as cell-based. Particulars: Homo sapiens, 72 h. As for the experimental part:
In this example, hepatotoxicity and neurotoxicity of compound I-1 and S-duloxetine were detected.
HepG-2 and SH-SY5Y cells were placed in 10 cm dish and cultured at 37° C., 5% CO2 in a cell incubator. Trypsin was used to digest and resuspend cells and cells were counted. The cells were transferred to 96-well plate with 8000 cells in a well (100 μl/well), cultured at 37° C., 5% CO2 in a cell incubator for 24 hrs. A serial of gradient concentration dilutions of compound I-1 (prepared in example 2 of the present invention) with 2-fold dilution were prepared, and the system was 100 μL/well. The supernatant of cell culture system in the 96-well plate was removed on the first day, and fresh-prepared drug concentration system was add into culture plate wells (duplicate wells were set). The cells were cultured at 37° C., 5% CO2 in a cell incubator for 72 h. […] Microplate reader was used to measure the absorbance at 450 nm. Data was processed to calculate cytotoxicity, and IC50 was calculated by GraphPad Prism. […]
A (Dosing): the absorbance of wells containing cells, CCK-8 solution and drug solution.
A (control): the absorbance of wells containing medium and CCK-8 solution and without cells.
A (0 Dosing): the absorbance of wells containing cells and CCK-8 solution but without drug solution […]

A further assay relates to Sprague-Dawley rats. The assay is described as follows: Rat hot plate pain model (acute pain). The assay is classed as in vivo. Particulars: 30 mg/kg intraperitoneal, hydrochloride salt. How it is done: Sprague-Dawley male, mature and unmated rats were placed at hot and cold plate (product model: PE34, US IITC) with constant 53±0.1° C. Mice with painful response such as licking claw, shaking claw or slightly jumping within 10-30 s were selected, and mice which evaded and jumped were abandoned. […] The test compound was freshly prepared on the day of administration. 0.9% NaCl physiological saline solution was prepared as solvent for later use. Appropriate amount of test compound was added into required volume of physiological saline and fully suspended, and the concentration of prepared drug was 1 mg/ml. […] After administration, the latency of heat pain was measured at 0.5 h, 1 h and 2 h after administration. In order to prevent animals from being scalded on the hot plate, the maximum incubation time was set to 30 s. Maximum possible effect (MPE) % was used to evaluate analgesic effect of each compound, i.e., MPE %=[(Post drug latency−baseline latency)/(30−baseline latency)]×100. MPE % at different time points was recorded.

In a further assay the test system is ICR mice. The assay is described as follows: Mice acetic acid writhing pain model (visceral and inflammatory pain). The assay is classed as in vivo. Particulars: for number of appearance of writhing reactions (visceral pain) within 30 min: 1 h before acetic acid, saline group 49 times. How it is done: Male ICR mice, 22-25 g, were fasted but allowed to drink water freely for 2 h before administration. All ICR mice were weighed and grouped randomly, each group had >10 animals. […] The drug was administrated by gavage based on the weight of mice. 1.5% acetic acid solution (0.1 ml/10 g) was injected intraperitoneally 1 h after administration, and the number of times of visceral pain in each group was observed within 30 min. When concave abdomen, stretched trunk and hind claw, and high buttocks appeared, one number point was recorded. Finally, the number of appearance of the above phenomenon was counted within 30 minutes.

For a further assay, the system named is SD rats. The assay is described as follows: Rat SNL model, mechanical allodynia test (nerve pain). The assay is classed as in vivo. Particulars: 1 h after administration, 10 mg/kg oral, hydrochloride salt; control group 3.967 ± 0.775.

TRPA1, sequence (Q8BLA8 whole entry): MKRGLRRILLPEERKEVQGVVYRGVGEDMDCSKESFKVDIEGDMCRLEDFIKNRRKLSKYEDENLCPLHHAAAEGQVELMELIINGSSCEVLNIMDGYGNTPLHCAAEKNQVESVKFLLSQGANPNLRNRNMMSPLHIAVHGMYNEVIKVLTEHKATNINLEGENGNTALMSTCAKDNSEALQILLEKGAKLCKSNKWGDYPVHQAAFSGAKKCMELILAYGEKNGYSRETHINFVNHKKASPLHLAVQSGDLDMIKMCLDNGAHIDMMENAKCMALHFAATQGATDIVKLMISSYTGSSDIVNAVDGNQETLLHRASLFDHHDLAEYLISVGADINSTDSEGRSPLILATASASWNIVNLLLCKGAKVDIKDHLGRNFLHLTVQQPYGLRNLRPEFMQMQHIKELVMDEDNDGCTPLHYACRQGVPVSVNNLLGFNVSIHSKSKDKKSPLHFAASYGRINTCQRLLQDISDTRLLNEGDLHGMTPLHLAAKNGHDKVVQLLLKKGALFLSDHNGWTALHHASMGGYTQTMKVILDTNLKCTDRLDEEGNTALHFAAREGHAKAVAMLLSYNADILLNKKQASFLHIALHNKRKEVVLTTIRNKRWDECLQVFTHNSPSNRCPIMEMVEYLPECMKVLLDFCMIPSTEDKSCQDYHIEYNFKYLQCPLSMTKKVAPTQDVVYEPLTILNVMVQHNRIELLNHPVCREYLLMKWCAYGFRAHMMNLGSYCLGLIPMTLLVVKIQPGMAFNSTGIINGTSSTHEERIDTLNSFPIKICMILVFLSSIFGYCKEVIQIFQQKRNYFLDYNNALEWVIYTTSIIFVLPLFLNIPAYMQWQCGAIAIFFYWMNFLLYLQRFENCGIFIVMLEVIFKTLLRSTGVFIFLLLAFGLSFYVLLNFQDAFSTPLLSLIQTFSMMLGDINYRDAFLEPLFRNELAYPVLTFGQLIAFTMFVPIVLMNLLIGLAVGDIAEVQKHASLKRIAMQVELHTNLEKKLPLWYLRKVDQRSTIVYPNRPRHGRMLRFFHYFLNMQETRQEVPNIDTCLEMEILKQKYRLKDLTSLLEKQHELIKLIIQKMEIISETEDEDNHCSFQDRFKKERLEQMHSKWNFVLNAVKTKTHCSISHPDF
Description for SD rats: Male SPF grade SD rats, weighed 150 g-180 g, were selected. Aseptic operation during surgery was performed. The animals were anesthetized with sodium pentobarbital (50 mg/kg, intraperitoneal injection). The surgical area of animal waist was shaved and the skin was disinfected three times with iodophor and 70% ethanol. After the skin was dried, the operation was started. Surgical knife was used to make a longitudinal incision at the back of the sacrum of the animal waist to expose the left paraspinal muscles, and stretcher was used to separate muscle tissue to expose the spine. The left spinal nerves L5 and L6 were separated and ligated with a 6-0 silk thread, and the wound was sutured. After the operation, the animals were placed on electrothermal pad, and 5 mL of saline was injected subcutaneously to prevent dehydration. After the animals were fully awakened and could move around freely, the animals were put back in the cage.
After the operation, the animals were adapted in the experimental environment for 15min/day for 3 days.
The animals were weighed to calculate the dose. […] After administration, mechanical allodynia test was performed. The rat was individually placed in a plexiglass box with a grid on the bottom of the box to ensure that the rat claw could be tested. The rats were allowed to adapt the environment for 15 min before test. After the adaptation was completed, the test fiber was used to test the center of the left hind claw of the rat. The test fiber comprises 8 test strengths: 3.61 (0.4 g), 3.84 (0.6 g), 4.08 (1 g), 4.31 (2 g), 4.56 (4 g), 4.74 (6 g), 4.93 (8 g), and 5.18 (15 g). […] During the test, rapid withdrawal of animal claw was recorded as pain response. When the test fiber was removed from animal skin, the withdrawal of animal claw was also recorded as pain response. If animal moved, the pain response was not recorded, and the test was repeated. […]
Mechanical allodynia was expressed as withdrawal threshold (PWT) in rat behavioral test, which was calculated with the following formula: […]

On to `CNCC[C@@H](Oc1cccc2ccoc12)c1cccs1` [Compound I-1, (R)-3-(benzofuran-7-yloxy)-N-methyl-3-(thiophen-2-yl)propyl-1-amine], for which the IC50 – broadly, the concentration that gives 50% inhibition – was 2.06 µM at TRPA1 (FIG. 1, read-out: IC50 on TRPA1, automated patch clamp); 1 to 5 µM on TRPA1 (current induced by AITC, read-out: IC50 (μM), inhibitory activity on TRPA1 in the automated patch clamp detection test); roughly 101 µM in the assay on SH-SY5Y cells. Moreover, the “activity ratio, IC50 of compound C2/IC50 of compound I-1” value at TRPA1 (TRPA1, automated patch clamp) was “about 6.3”. The MPE % in the assay on Sprague-Dawley rats (0.5 h after administration) turned out to be 14.51 ± 6.87%; with Sprague-Dawley rats (1 h after administration), 38.03 ± 5.66%; with Sprague-Dawley rats (2 h after administration) it was 31.92 ± 6.79%. Besides, the “number of appearance of writhing reactions (visceral pain) within 30 min” value turned out to be 19 times with ICR mice (5 mg/kg by gavage) and 16 times with ICR mice (10 mg/kg by gavage). Also, in the assay with ICR mice (5 mg/kg by gavage, 19 times vs 49 times), the “number of visceral pain lower than the saline control group” value is listed as 50%. Further, the “PWT(g), claw withdrawal threshold” value in the assay on SD rats was 7.869 ± 2.846 g.
